According to US20250340577A1, “BETA-LACTOMASE INHIBITORS AND USES THEREOF” (Case Western Reserve University, priority 2021, published 2025):
Where two headings read alike, the source gives them in different places.

How the values were obtained:
Assay type in all cases: cell-based
[1] = tested on: Klebsiella pneumonia/BAA-1705; test: MIC of MB076 alone or in combination with cefepime or meropenem; conditions: Klebsiella pneumoniae, BAA1705
Description: (§1) MICs were determined by the Agar microdilution method, following CLSI guidelines. Compounds were tested at fixed concentration of 4 ug/ml in combination with cefepime.

[2] = tested on: Klebsiella pneumonia/FDA-CDC AR-BANK#0098; test: as above; conditions: Klebsiella pneumoniae
Description: as §1

[3] = tested on: Klebsiella pneumonia/FDA-CDC AR-BANK#0097; test: as above; conditions: Klebsiella pneumoniae
Description: as §1

[4] = tested on: 18SH; test: MIC of antibiotics in combination with 10 μg/mL of ceftolozane-like BATSIs; conditions: CAZ + 10 μg/mL compound
[5] = tested on: K. pneum KPC-Kpn; test: as above; conditions: FEP + 10 μg/mL compound
[6] = tested on: blaCTXM-9; test: as above; conditions: FEP + 10 μg/mL compound
[7] = tested on: K. pneum blaKPC-2; test: as above; conditions: FEP + 10 μg/mL compound
[8] = tested on: blaADC-7; test: as above; conditions: CAZ + 10 μg/mL compound
[9] = tested on: blaCMY-2; test: as above; conditions: CAZ + 10 μg/mL compound
[10] = tested on: blaPDC-3E221K; test: as above; conditions: CAZ + 10 μg/mL compound
[11] = tested on: E. coli DH10B pBC-SK P99; test: MIC with cefepime, agar microdilution, CLSI; conditions: compound fixed at 4 ug/ml
Description: (§2) Minimum inhibitory concentration (MIC) of MB076 and derivatives (PCF_038-043) in combination with cefepime.
as §1

[12] = tested on: K. pneumoniae ST17; test: MIC with cefepime, agar microdilution, CLSI; conditions: compound fixed at 4 ug/ml; KPC-2, TEM, SHV, CTX-M-Group 1
Description: as §2, §1

[13] = tested on: E. coli 29838; test: MIC with cefepime, agar microdilution, CLSI; conditions: compound fixed at 4 ug/ml; CTX-M-14, TEM-1
Description: as §2, §1

[14] = tested on: E. coli DH10B pBC-SK KPC-2; test: MIC with cefepime, agar microdilution, CLSI; conditions: compound fixed at 4 ug/ml
Description: as §2, §1

[15] = tested on: K. pneumoniae ST258 B5; test: MIC with cefepime, agar microdilution, CLSI; conditions: compound fixed at 4 ug/ml; KPC-2
Description: as §2, §1

[16] = tested on: K. pneumoniae 266; test: MIC with cefepime, agar microdilution, CLSI; conditions: compound fixed at 4 ug/ml; SHV-5
Description: as §2, §1

[17] = tested on: E. coli DH10B pBC-SK control; test: MIC with cefepime, agar microdilution, CLSI; conditions: compound fixed at 4 ug/ml; B-lactamases none
Description: as §2, §1

[18] = tested on: K. pneumoniae 427; test: MIC with cefepime, agar microdilution, CLSI; conditions: compound fixed at 4 ug/ml; TEM-1, SHV-1, CTX-M-3
Description: as §2, §1

[19] = tested on: A. baumannii 0057; test: MIC with cefepime, agar microdilution, CLSI; conditions: compound fixed at 4 ug/ml; ADC-7
Description: as §2, §1

[20] = tested on: K. pneumoniae 255; test: MIC with cefepime, agar microdilution, CLSI; conditions: compound fixed at 4 ug/ml; TEM-1, SHV-2
Description: as §2, §1

[21] = tested on: E. coli DH10B pBC-SK SHV-2; test: MIC with cefepime, agar microdilution, CLSI; conditions: compound fixed at 4 ug/ml
Description: as §2, §1

[22] = tested on: K. pneumoniae 253; test: MIC with cefepime, agar microdilution, CLSI; conditions: compound fixed at 4 ug/ml; TEM-12, SHV-5, CTX-M
Description: as §2, §1

[23] = tested on: E. coli pLTCF1; test: MIC with cefepime, agar microdilution, CLSI; conditions: compound fixed at 4 ug/ml; CTX-M group 9
Description: as §2, §1

[24] = tested on: E. coli pLTCF2; test: MIC with cefepime, agar microdilution, CLSI; conditions: compound fixed at 4 ug/ml
Description: as §2, §1

[25] = tested on: K. pneumoniae 34700; test: MIC with cefepime, agar microdilution, CLSI; conditions: compound fixed at 4 ug/ml; CTX-M-15, SHV, TEM
Description: as §2, §1

[26] = tested on: E. coli DH10B pBC-SK PDC-3; test: MIC with cefepime, agar microdilution, CLSI; conditions: compound fixed at 4 ug/ml
Description: as §2, §1

[27] = tested on: K. pneumoniae ST258 C3; test: MIC with cefepime, agar microdilution, CLSI; conditions: compound fixed at 4 ug/ml; KPC-3
Description: as §2, §1

[28] = tested on: E. coli ATCC BAA202; test: MIC with cefepime, agar microdilution, CLSI; conditions: compound fixed at 4 ug/ml; SHV-1
Description: as §2, §1

[29] = tested on: K. pneumoniae original KPC-2; test: MIC with cefepime, agar microdilution, CLSI; conditions: compound fixed at 4 ug/ml
Description: as §2, §1

Row | SMILES | MIC of cefepime in combination with compound [11] [µg/mL] | MIC of cefepime in combination with compound [12] [µg/mL] | MIC of cefepime in combination with compound [13] [µg/mL] | MIC of cefepime in combination with compound [14] [µg/mL] | MIC of cefepime in combination with compound [15] [µg/mL] | MIC of cefepime in combination with compound [16] [µg/mL] | MIC of cefepime in combination with compound [17] [µg/mL] | MIC of cefepime in combination with compound [18] [µg/mL] | MIC of cefepime in combination with compound [19] [µg/mL] | MIC of cefepime in combination with compound [20] [µg/mL] | MIC of cefepime in combination with compound [21] [µg/mL] | MIC of cefepime in combination with compound [22] [µg/mL] | MIC of cefepime in combination with compound [23] [µg/mL] | MIC of cefepime in combination with compound [24] [µg/mL] | MIC of cefepime in combination with compound [25] [µg/mL] | MIC of cefepime in combination with compound [26] [µg/mL] | MIC of cefepime in combination with compound [27] [µg/mL] | MIC of cefepime in combination with compound [28] [µg/mL] | MIC of cefepime in combination with compound [29] [µg/mL] | other results
1 | C[C@@H](O)[C@H]1C(=O)N2C(C(=O)O)=C(S[C@@H]3CN[C@H](C(=O)N(C)C)C3)[C@H](C)[C@H]12 [Meropenem, meropenem] | – | – | – | – | – | – | – | – | – | – | – | – | – | – | – | – | – | – | – | MIC ([1]; single agent, read-out: MIC): 32 µg/mL; MIC ([2]; single agent, read-out: MIC): 16 µg/mL; MIC ([3]; single agent, read-out: MIC): > 32 µg/mL
2 | CC(C)(O/N=C(\C(=O)NCB(O)O)c1nsc(N)n1)C(=O)O [PCF_013] | – | – | – | – | – | – | – | – | – | – | – | – | – | – | – | – | – | – | – | MIC values of antibiotics in combination with 10 μg/mL of compounds [4]: 64 µg/mL; MIC values of antibiotics in combination with 10 μg/mL of compounds [5]: 16 µg/mL; MIC values of antibiotics in combination with 10 μg/mL of compounds [6]: 4 µg/mL; MIC values of antibiotics in combination with 10 μg/mL of compounds [7]: 16 µg/mL; MIC values of antibiotics in combination with 10 μg/mL of compounds [8]: 4 µg/mL; MIC values of antibiotics in combination with 10 μg/mL of compounds [9]: 64 µg/mL; MIC values of antibiotics in combination with 10 μg/mL of compounds [10]: 8 µg/mL
3 | CC(C)(O/N=C(\C(=O)N[C@@H](Cn1cc(C(=O)O)nn1)B(O)O)c1nsc(N)n1)C(=O)O [PCF_014] | – | – | – | – | – | – | – | – | – | – | – | – | – | – | – | – | – | – | – | MIC values of antibiotics in combination with 10 μg/mL of compounds [4]: 64 µg/mL; MIC values of antibiotics in combination with 10 μg/mL of compounds [5]: 32 µg/mL; MIC values of antibiotics in combination with 10 μg/mL of compounds [6]: 2 µg/mL; MIC values of antibiotics in combination with 10 μg/mL of compounds [7]: 32 µg/mL; MIC values of antibiotics in combination with 10 μg/mL of compounds [8]: 8 µg/mL; MIC values of antibiotics in combination with 10 μg/mL of compounds [9]: 64 µg/mL; MIC values of antibiotics in combination with 10 μg/mL of compounds [10]: 32 µg/mL
4 | Cc1nnc(SCC(=O)N[C@@H](Cn2cc(C(=O)O)nn2)B(O)O)[nH]1 [PCF_038] | < 0.25 | 32 | < 0.25 | < 0.25 | 16 | < 0.25 | < 0.25 | < 0.25 | 64 | 2 | < 0.25 | 2 | < 0.25 | < 0.25 | 1 | < 0.25 | 0.5 | 0.5 | < 0.25 | –
5 | O=C(CNn1cnnc1S)N[C@@H](Cn1cc(C(=O)O)nn1)B(O)O [PCF_039] | < 0.25 | 16 | < 0.25 | < 0.25 | 4 | < 0.25 | < 0.25 | < 0.25 | 32 | 2 | < 0.25 | 1 | < 0.25 | < 0.25 | 1 | < 0.25 | < 0.25 | < 0.25 | 0.5 | –
6 | O=C(CSC1=NCCS1)NC(Cn1cc(C(=O)O)nn1)B(O)O (centres unmarked) [PCF_040] | < 0.25 | 32 | 0.5 | 1 | 32 | < 0.25 | < 0.25 | 1 | 32 | 2 | 0.5 | 4 | 0.5 | < 0.25 | 4 | < 0.25 | 2 | 2 | 2 | –
7 | O=C(CNc1nnc(S)s1)N[C@@H](Cn1cc(C(=O)O)nn1)B(O)O [PCF_041] | < 0.25 | 16 | < 0.25 | < 0.25 | 16 | < 0.25 | < 0.25 | 0.5 | 64 | – | < 0.25 | 2 | 0.5 | < 0.25 | 2 | < 0.25 | 1 | 0.5 | 0.5 | –
8 | O=C(CSc1ccccn1)N[C@@H](Cn1cc(C(=O)O)nn1)B(O)O [PCF_042] | < 0.25 | 32 | < 0.25 | – | 16 | < 0.25 | < 0.25 | < 0.25 | 64 | 2 | < 0.25 | – | < 0.25 | < 0.25 | 1 | < 0.25 | 0.5 | < 0.25 | < 0.25 | –
9 | O=C(CS)N[C@@H](Cn1cc(C(=O)O)nn1)B(O)O [PCF_043] | 1 | 32 | 0.5 | 1 | 16 | < 0.25 | < 0.25 | 1 | 32 | 4 | < 0.25 | 4 | 1 | < 0.25 | 4 | < 0.25 | 2 | 1 | 1 | –
10 | CN(C)c1cc(NC(=O)CNC(C)(C)C)c(O)c2c1C[C@H]1C[C@H]3[C@H](N(C)C)C(O)=C(C(N)=O)C(=O)[C@@]3(O)C(O)=C1C2=O [Tigecycline] | – | – | – | – | – | – | – | – | – | – | – | – | – | – | – | – | – | – | – | MIC [1]: 2 µg/mL; MIC [2]: 1 µg/mL; MIC [3]: 4 µg/mL
